# Data from US4169197A, “6-Deoxyneamines aminoglycoside compounds” (The Upjohn Company, priority 1978, dated 1979).
# Like-named read-outs stand apart in the source and are kept apart here.
# What was measured:
# Type in all cases: cell-based
# P. morganii UC 3186 = assay: standard microplate test in BHI Agar; conditions: Morganella morganii, UC3186, 20 h, read-out: Minimum Inhibitory Concentration
# Experimental: (§1) The compounds VII, XI, XVβ, XVα and XVI were tested in a standard microplate test in BHI (Brain Heart Infusion) Agar at a concentration of 1 mg./ml. and dilutions thereof at 37° incubation temperature. The end points are read out 20 hours. BHI Agar is supplied by Difco Laboratories, Detroit, Mich.
# S. aureus UC 76 = assay: standard microplate test in BHI Agar; conditions: Staphylococcus aureus, read-out: Minimum Inhibitory Concentration
# Experimental: as §1
# P. mirabilis UC 6671 = assay: standard microplate test in BHI Agar; conditions: Proteus mirabilis, UC6671, 20 h, read-out: Minimum Inhibitory Concentration
# Experimental: as §1
# S. faecalis UC 694 = assay: standard microplate test in BHI Agar; conditions: Enterococcus faecalis, UC694, 20 h, read-out: Minimum Inhibitory Concentration
# Experimental: as §1
# S. pneumoniae I UC 41 = assay: standard microplate test in BHI Agar; conditions: Streptococcus pneumoniae, UC41, 20 h, read-out: Minimum Inhibitory Concentration
# Experimental: as §1
# P. vulgaris UC 93 [1] = assay: standard microplate test in BHI Agar; conditions: Proteus vulgaris, UC93, 20 h, read-out: Minimum Inhibitory Concentration
# Experimental: as §1
# E. coli UC 45 = assay: standard microplate test in BHI Agar; conditions: Escherichia coli, UC45, 37°, 20 hours, Table III, read-out: Minimum Inhibitory Concentration
# Experimental: as §1
# P. rettgeri UC 339 = assay: standard microplate test in BHI Agar; conditions: Providencia rettgeri, UC339, 20 h, read-out: Minimum Inhibitory Concentration
# Experimental: as §1
# S. pyogenes UC 152 = assay: standard microplate test in BHI Agar; conditions: Streptococcus pyogenes, UC152, 20 h, read-out: Minimum Inhibitory Concentration
# Experimental: as §1
# S. schottmuelleri UC 126 [2] = assay: standard microplate test in BHI Agar; conditions: 37°, 20 hours, Table III, read-out: Minimum Inhibitory Concentration
# Experimental: as §1
# S. marcescens UC 131 = assay: standard microplate test in BHI Agar; conditions: Serratia marcescens, UC131, 20 h, read-out: Minimum Inhibitory Concentration
# Experimental: as §1
# S. typhi UC 215 = assay: standard microplate test in BHI Agar; conditions: Salmonella enterica, 20 h, read-out: Minimum Inhibitory Concentration
# Experimental: as §1
# S. flexneri UC 143 = assay: standard microplate test in BHI Agar; conditions: Shigella flexneri, UC143, 37°, 20 hours, Table III, read-out: Minimum Inhibitory Concentration
# Experimental: as §1
# K. pneumoniae UC 58 = assay: standard microplate test in BHI Agar; conditions: Klebsiella pneumoniae, UC58, 20 h, read-out: Minimum Inhibitory Concentration
# Experimental: as §1
# Ps. aeruginosa UC 95 [3] = assay: standard microplate test in BHI Agar; conditions: Pseudomonas aeruginosa, UC95, 20 h, read-out: Minimum Inhibitory Concentration
# Experimental: as §1
# K. pneumoniae UC 57 = assay: standard disc plate assay, zones of inhibition; conditions: Klebsiella pneumoniae, UC57, 12.5 mm paper discs, Table II, read-out: Zones of Inhibition
# Source text: (§2) The compounds of formulas (V, VII, IX, XI, XIV, XVI, and XIX) are active as antibacterials and can be used in various environments to erradicate or control susceptible microorganisms. Tables I and II set forth the in vitro antibacterial test results for representative compounds of the present invention. The results were obtained with a standard disc plate assay using 12.5 mm paper discs.
# E. coli UC 51 = assay: standard disc plate assay, zones of inhibition; conditions: Escherichia coli, UC51, 12.5 mm paper discs, Table II, read-out: Zones of Inhibition
# Source text: as §2
# B. cereus UC 3145 = assay: standard disc plate assay, zones of inhibition; conditions: Bacillus cereus, UC3145; 1 mg/ml; 12.5 mm paper discs; Table II; read-out: Zones of Inhibition
# Source text: as §2
# P. vulgaris UC 93 [4] = assay: standard disc plate assay, zones of inhibition; conditions: Proteus vulgaris, UC93; 1 mg/ml; 12.5 mm paper discs; Table II; read-out: Zones of Inhibition
# Source text: as §2
# B. subtilis UC 564 = assay: standard disc plate assay, zones of inhibition; conditions: Bacillus subtilis, UC564, 12.5 mm paper discs, Table II, read-out: Zones of Inhibition
# Source text: as §2
# S. gallinarum UC 265 = assay: standard disc plate assay, zones of inhibition; conditions: Salmonella enterica, 12.5 mm paper discs, Table II, read-out: Zones of Inhibition
# Source text: as §2
# S. aureus UC 80 = assay: standard disc plate assay, zones of inhibition; conditions: Staphylococcus aureus, UC80, 12.5 mm paper discs, Table II, read-out: Zones of Inhibition
# Source text: as §2
# S. lutea UC 130 = assay: standard disc plate assay, zones of inhibition; conditions: Micrococcus luteus, UC130; 1 mg/ml; 12.5 mm paper discs; Table II; read-out: Zones of Inhibition
# Source text: as §2
# S. schottmuelleri UC 126 [5] = assay: standard disc plate assay, zones of inhibition; conditions: 1 mg/ml; 12.5 mm paper discs; Table II
# Source text: as §2
# Ps. aeruginosa UC 95 [6] = assay: standard disc plate assay, zones of inhibition; conditions: Pseudomonas aeruginosa, UC95; 1 mg/ml; 12.5 mm paper discs; Table II; read-out: Zones of Inhibition
# Source text: as §2
smiles,measurement,setting,value
"C[C@@]1(O)C[C@H](N)C[C@H](N)[C@H]1O[C@H]1O[C@H](CN)[C@@H](O)[C@H](O)[C@H]1N [6-deoxy-5-methylneamine (VII), 6-deoxy-5-methyl-neamine]",MIC,P. morganii UC 3186,125 µg/mL
same,MIC,"S. aureus UC 76; UC76, 20 h",15.6 µg/mL
same,MIC,P. mirabilis UC 6671,250 µg/mL
same,MIC,S. faecalis UC 694,> 500 µg/mL
same,MIC,S. pneumoniae I UC 41,62.5 µg/mL
same,MIC,P. vulgaris UC 93 [1],62.5 µg/mL
same,MIC,E. coli UC 45,125 µg/mL
same,MIC,P. rettgeri UC 339,> 500 µg/mL
same,MIC,S. pyogenes UC 152,7.8 µg/mL
same,MIC,S. schottmuelleri UC 126 [2],62.5 µg/mL
same,MIC,S. marcescens UC 131,125 µg/mL
same,MIC,S. typhi UC 215,62.5 µg/mL
same,MIC,S. flexneri UC 143,125 µg/mL
same,MIC,K. pneumoniae UC 58,15.6 µg/mL
same,MIC,Ps. aeruginosa UC 95 [3],> 500 µg/mL
same,zone of inhibition at 100 µg/mL,K. pneumoniae UC 57; 0.1 mg/ml,22 mm
same,zone of inhibition at 1000 µg/mL,K. pneumoniae UC 57; 1 mg/ml,29 mm
same,zone of inhibition at 100 µg/mL,E. coli UC 51; 0.1 mg/ml,16 mm
same,zone of inhibition at 1000 µg/mL,E. coli UC 51; 1 mg/ml,24 mm
same,zone of inhibition at 1000 µg/mL,B. cereus UC 3145,23 mm
same,zone of inhibition at 1000 µg/mL,P. vulgaris UC 93 [4],24 mm
same,zone of inhibition at 100 µg/mL,B. subtilis UC 564; 0.1 mg/ml,26 mm
same,zone of inhibition at 1000 µg/mL,B. subtilis UC 564; 1 mg/ml,37 mm
same,zone of inhibition at 100 µg/mL,S. gallinarum UC 265; 0.1 mg/ml,18 mm
same,zone of inhibition at 1000 µg/mL,S. gallinarum UC 265; 1 mg/ml,28 mm
same,zone of inhibition at 100 µg/mL,S. aureus UC 80; 0.1 mg/ml,18 mm
same,zone of inhibition at 1000 µg/mL,S. aureus UC 80; 1 mg/ml,25 mm
same,zone of inhibition at 1000 µg/mL,S. lutea UC 130,15 mm
same,zone of inhibition at 1000 µg/mL,S. schottmuelleri UC 126 [5],21 mm
same,zone of inhibition at 1000 µg/mL,Ps. aeruginosa UC 95 [6],15 mm
"NC[C@H]1O[C@H](O[C@H]2[C@H](O)C[C@H](N)C[C@@H]2N)[C@H](N)[C@@H](O)[C@@H]1O [6-deoxyneamine (XI), 6-deoxyneamine]",MIC,P. morganii UC 3186,62.5 µg/mL
same,MIC,"S. aureus UC 76; UC76, BHI Agar, 37°, 20 hours, Table III",3.9 µg/mL
same,MIC,P. mirabilis UC 6671,62.5 µg/mL
same,MIC,S. faecalis UC 694,> 500 µg/mL
same,MIC,S. pneumoniae I UC 41,62.5 µg/mL
same,MIC,P. vulgaris UC 93 [1],31.2 µg/mL
same,MIC,E. coli UC 45,31.2 µg/mL
same,MIC,P. rettgeri UC 339,250 µg/mL
same,MIC,S. pyogenes UC 152,15.6 µg/mL
same,MIC,S. schottmuelleri UC 126 [2],31.2 µg/mL
same,MIC,S. marcescens UC 131,250 µg/mL
same,MIC,S. typhi UC 215,31.2 µg/mL
same,MIC,S. flexneri UC 143,62.5 µg/mL
same,MIC,K. pneumoniae UC 58,7.8 µg/mL
same,MIC,Ps. aeruginosa UC 95 [3],> 500 µg/mL
